Reference: patent publication US7135466B2 (Kirin Beer Kabushiki Kaisha, priority 1999, dated 2006)
Like-named read-outs stand apart in the source and are kept apart here.

Key:
PDGF-Ra = target: T1, PDGF-Ra (Homo sapiens, UniProt P16234); test: Inhibitory activity against PDGF-Ra phosphorylation by PDGF-AA stimulation using G292; format: cell-based; details: for IC50: > means inhibition at indicated concentration not more than 50%, < and << not less than 50%, read-out: PDGF (E) IC50; for inhibition at 0.1 µM: G292, at 100 nM, read-out: PDGF (E) inhibition (%) at 100 nM
T1 construct: host or cells: G-292 human osteosarcoma cells
In short: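 G-292 human osteosarcoma cells, serum-starved overnight in 0.1% FBS, were pretreated with compound in DMSO for 1 hr at 37 °C, then stimulated with 50 ng/ml PDGF-AA for 5 min. Lysates were captured on anti-phosphotyrosine PY-20 plates and probed with anti-PDGF-Ra plus HRP secondary; absorbance read at 450 nm.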

c-kit = target: T2, c-kit (Homo sapiens, UniProt P10721); test: Inhibitory activity against c-kit autophosphorylation (MO7e cells, h-SCF); format: cell-based; details: for IC50: MO7e cells, read-out: c-kit IC50; for inhibition at 1 µM: Mo7e, at 1000 nM
T2 construct: MO7e (human megakaryocytic leukemia cell line) which had been arrested for 20 hr; endogenous in cells; host or cells: MO7e human megakaryocytic leukemia cell line
In short: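 Growth-arrested (20 hr) MO7e; cpd in DMSO, 1 hr; h-SCF 50 ng/ml, 5 min; lyse. ELISA: anti-pTyr (PY-20) capture, anti-c-kit 1° Ab, HRP anti-rabbit 2° Ab, A450.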

[1] = figure within parentheses in −( ) or >1000( )
[2] = figure in parentheses in >100( )

T2 sequence (P10721 26-976): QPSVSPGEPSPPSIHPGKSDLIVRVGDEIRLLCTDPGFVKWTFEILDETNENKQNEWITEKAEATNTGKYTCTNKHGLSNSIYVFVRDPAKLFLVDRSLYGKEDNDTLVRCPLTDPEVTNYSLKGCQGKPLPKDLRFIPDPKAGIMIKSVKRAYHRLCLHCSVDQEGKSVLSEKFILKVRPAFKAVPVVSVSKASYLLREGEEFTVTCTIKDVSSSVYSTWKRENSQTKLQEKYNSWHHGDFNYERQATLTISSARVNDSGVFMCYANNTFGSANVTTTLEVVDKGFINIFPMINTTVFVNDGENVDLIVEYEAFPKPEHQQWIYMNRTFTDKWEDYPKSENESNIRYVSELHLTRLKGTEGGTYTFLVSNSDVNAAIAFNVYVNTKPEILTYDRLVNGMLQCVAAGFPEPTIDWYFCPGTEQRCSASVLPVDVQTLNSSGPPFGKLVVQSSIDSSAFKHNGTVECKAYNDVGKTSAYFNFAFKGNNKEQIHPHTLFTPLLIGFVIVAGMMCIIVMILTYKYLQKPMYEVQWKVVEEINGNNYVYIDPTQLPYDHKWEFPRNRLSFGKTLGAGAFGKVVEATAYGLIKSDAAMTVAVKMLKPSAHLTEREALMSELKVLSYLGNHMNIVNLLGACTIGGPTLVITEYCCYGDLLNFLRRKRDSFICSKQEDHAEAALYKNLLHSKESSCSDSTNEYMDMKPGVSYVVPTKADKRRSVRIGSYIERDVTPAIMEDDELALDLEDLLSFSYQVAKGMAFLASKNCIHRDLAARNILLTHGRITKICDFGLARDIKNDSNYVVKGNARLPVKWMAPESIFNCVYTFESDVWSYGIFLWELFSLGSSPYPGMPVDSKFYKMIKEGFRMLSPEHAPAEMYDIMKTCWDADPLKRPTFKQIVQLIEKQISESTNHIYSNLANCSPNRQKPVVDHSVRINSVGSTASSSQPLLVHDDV
T1 sequence (P16234 24-1089): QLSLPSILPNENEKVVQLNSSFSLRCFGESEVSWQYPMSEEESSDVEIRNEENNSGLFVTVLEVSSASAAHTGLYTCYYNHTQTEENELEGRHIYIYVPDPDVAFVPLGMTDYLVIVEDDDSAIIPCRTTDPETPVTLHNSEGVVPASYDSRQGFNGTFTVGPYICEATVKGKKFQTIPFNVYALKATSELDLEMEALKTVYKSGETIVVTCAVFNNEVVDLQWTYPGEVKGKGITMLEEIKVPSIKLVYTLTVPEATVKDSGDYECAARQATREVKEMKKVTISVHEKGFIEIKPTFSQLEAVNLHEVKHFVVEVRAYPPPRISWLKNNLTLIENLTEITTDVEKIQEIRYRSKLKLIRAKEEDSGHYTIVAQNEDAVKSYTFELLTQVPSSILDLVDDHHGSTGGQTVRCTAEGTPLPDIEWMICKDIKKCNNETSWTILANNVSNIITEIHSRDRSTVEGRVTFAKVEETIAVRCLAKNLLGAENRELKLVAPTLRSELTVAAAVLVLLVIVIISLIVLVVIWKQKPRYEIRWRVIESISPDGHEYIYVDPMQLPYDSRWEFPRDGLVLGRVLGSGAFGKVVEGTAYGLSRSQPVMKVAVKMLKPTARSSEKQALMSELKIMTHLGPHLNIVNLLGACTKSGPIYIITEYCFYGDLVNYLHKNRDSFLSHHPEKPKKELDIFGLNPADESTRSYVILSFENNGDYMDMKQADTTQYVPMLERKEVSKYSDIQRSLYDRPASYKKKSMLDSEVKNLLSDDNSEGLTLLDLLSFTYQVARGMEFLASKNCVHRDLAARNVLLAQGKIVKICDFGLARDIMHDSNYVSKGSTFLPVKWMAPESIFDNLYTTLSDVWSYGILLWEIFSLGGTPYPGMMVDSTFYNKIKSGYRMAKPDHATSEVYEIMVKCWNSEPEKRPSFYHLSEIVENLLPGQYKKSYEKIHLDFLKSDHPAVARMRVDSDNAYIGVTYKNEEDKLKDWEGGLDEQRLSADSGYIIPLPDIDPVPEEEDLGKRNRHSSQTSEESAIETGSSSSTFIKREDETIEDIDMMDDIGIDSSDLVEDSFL

IC50 (PDGF-Ra) [nM]	IC50 (PDGF-Ra; Pharmacological Test Example 1) [nM]	IC50 (c-kit; h-SCF 50 ng/ml) [nM]	Compound	further results
< 10	–	–	COc1cc2ncnc(Oc3ccc(NC(=S)NC(=O)CCc4ccccc4C)cc3)c2cc1OC [Example 1133, N-{4-[(6,7-Dimethoxy-4-quinazolinyl)oxy]phenyl}-N′-[3-(2-methylphenyl)propanoyl]thiourea]	IC50 (c-kit; h-SCF stimulation): 42 nM
39	–	–	COc1cc2ncnc(Oc3ccc(NC(=O)NC4CCN(Cc5ccccc5C)C4)c(Cl)c3)c2cc1OC (centres unmarked) [Example 573, N-{2-Chloro-4-[(6,7-dimethoxy-4-quinazolinyl)oxy]phenyl}-N′-[1-(2-methylbenzyl)tetrahydro-1H-3-pyrrolyl]urea]	IC50 (c-kit; 50 ng/ml h-SCF): 348 nM
36	–	–	COc1cc2ncnc(Oc3ccc(NC(=S)NCCN(C)C)cc3)c2cc1OC [Example 559, N-{4-[(6,7-Dimethoxy-4-quinazolinyl)oxy]phenyl}-N′-(2-dimethylaminoethyl)thiourea]	IC50 (c-kit; 50 ng/ml h-SCF): 711 nM
–	< 10	133	COc1cc2nccc(Oc3ccc(NC(=O)OC(C)c4cccc(Cl)c4)c(C)c3C)c2cc1OC (centres unmarked) [Example 4, 1-(3-Chlorophenyl)ethyl N-{4-[(6,7-dimethoxy-4-quinolyl)oxy]-2,3-dimethylphenyl}carbamate]	–
–	23	362	COc1ccc(C(C)OC(=O)Nc2ccc(Oc3ccnc4cc(OC)c(OC)cc34)c(C)c2C)cc1 (centres unmarked) [Example 33, 1-(4-Methoxyphenyl)ethyl N-{4-[(6,7-dimethoxy-4-quinolyl)oxy]-2,3-dimethylphenyl}carbamate]	–
13	–	–	COc1cc2ncnc(Oc3ccc(OCC(=O)N4CCC(c5ccccc5)CC4)cc3)c2cc1OC [Example 803, 2-{4-[(6,7-Dimethoxy-4-quinazolinyl)oxy]phenoxy}-1-(4-phenylpiperidino)-1-ethanone]	inhibition at 1 µM (c-kit; [1]): 20%
–	48	–	COc1cc2ncnc(Oc3ccc(NC(=O)OC(C)c4cccc(Br)c4)c(Cl)c3)c2cc1OC (centres unmarked) [Example 121, 1-(3-Bromophenyl)ethyl N-{2-chloro-4-[(6,7-dimethoxy-4-quinazolinyl)oxy]phenyl}carbamate]	inhibition at 1 µM (c-kit; figure in parentheses in −( )): 17%
–	12	–	COc1cc2ncnc(Oc3ccc(NC(=O)OC(C)c4cccc(F)c4)c(Cl)c3)c2cc1OC (centres unmarked) [Example 101, 1-(3-Fluorophenyl)ethyl N-{2-chloro-4-[(6,7-dimethoxy-4-quinazolinyl)oxy]phenyl}carbamate]	inhibition at 1 µM (c-kit; figure in parentheses in −( )): 27%
–	15	52	COc1cc2ncnc(Oc3ccc(NC(=O)OCCSc4cc(C)ccc4C)cc3)c2cc1OC [Example 168, 2-[(2,5-Dimethylphenyl)sulfanyl]ethyl N-{4-[(6,7-dimethoxy-4-quinazolinyl)oxy]phenyl}carbamate]	–
–	11	32	COc1cc2ncnc(Oc3ccc(NC(=O)OCCCOc4ccccc4F)c(C)c3C)c2cc1OC [Example 146, 3-(2-Fluorophenoxy)propyl N-{4-[(6,7-dimethoxy-4-quinazolinyl)oxy]-2,3-dimethylphenyl}carbamate]	–
–	< 10	< 30	COc1cc2nccc(Oc3ccc(NC(=O)OCCCOc4ccc(F)cc4)cc3)c2cc1OC [Example 152, 3-(4-Fluorophenoxy)propyl N-{4-[(6,7-dimethoxy-4-quinolyl)oxy]phenyl}carbamate]	–
–	< 10	342	COc1ccc(C(C)OC(=O)Nc2ccc(Oc3ncnc4cc(OC)c(OC)cc34)cc2)cc1 (centres unmarked) [Example 35, 1-(4-Methoxyphenyl)ethyl N-{4-[(6,7-dimethoxy-4-quinazolinyl)oxy]phenyl}carbamate]	–
21	–	–	COc1ccccc1COC(=O)N(C)c1ccc(Oc2ncnc3cc(OC)c(OC)cc23)cc1 [Example 490, 2-Methoxybenzyl N-{4-[(6,7-dimethoxy-4-quinazolinyl)oxy]phenyl}-N-methylcarbamate]	IC50 (c-kit; 50 ng/ml h-SCF): 261 nM
–	< 10	37	CCCCOC(=O)Nc1ccc(Oc2ccnc3cc(OC)c(OC)cc23)cc1 [Example 321, Butyl N-{4-[(6,7-dimethoxy-4-quinolyl)oxy]phenyl}carbamate]	–
–	18	402	COc1cc2nccc(Oc3ccc(NC(=O)OC(C)c4ccccc4Br)c(C)c3C)c2cc1OC (centres unmarked) [Example 113, 1-(2-Bromophenyl)ethyl N-{4-[(6,7-dimethoxy-4-quinolyl)oxy]-2,3-dimethylphenyl}carbamate]	–
< 10	–	–	COc1cc2ncnc(Oc3ccc(NC(=S)NC(=O)c4ccc(CCl)cc4)cc3)c2cc1OC [Example 1002, N-[4-(Chloromethyl)benzoyl]-N′-{4-[(6,7-dimethoxy-4-quinazolinyl)oxy]phenyl}thiourea]	inhibition at 1 µM (c-kit; figure in parentheses in −( )): 16%
40	–	–	COc1cc2ncnc(Oc3ccc(NC(=O)NCCN(C(C)C)C(C)C)c(Cl)c3)c2cc1OC [Example 657, N-{2-Chloro-4-[(6,7-dimethoxy-4-quinazolinyl)oxy]phenyl}-N′-[2-(diisopropylamino)ethyl]urea]	inhibition at 1 µM (c-kit; [1]): 27%

The next lines start with the molecule.

Compound	IC50 (PDGF-Ra) [nM]	IC50 (PDGF-Ra; Pharmacological Test Example 1) [nM]	IC50 (c-kit; h-SCF 50 ng/ml) [nM]	further results
CCN(CCNC(=S)Nc1cc(C)c(Oc2ccnc3cc(OC)c(OC)cc23)cc1C)c1ccccc1C [Example 540, N-{4-[(6,7-Dimethoxy-4-quinolyl)oxy]-2,5-dimethylphenyl}-N′-{2-[N-ethyl-N-(o-tolyl)amino]-ethyl}thiourea]	48	–	–	IC50 (c-kit; 50 ng/ml h-SCF): 447 nM
COc1cc2nccc(Oc3ccc(NC(=O)Oc4ccccc4C(C)(C)C)cc3)c2cc1OC [Example 300]	–	< 10	–	inhibition at 1 µM (c-kit; figure in parentheses in −( )): 43%
COc1cc2nccc(Oc3ccc(NC(=O)OCc4ccc(C(F)(F)F)cc4)c(C)c3C)c2cc1OC [Example 22, 4-(Trifluoromethyl)benzyl N-{4-[(6,7-dimethoxy-4-quinolyl)oxy]-2,3-dimethylphenyl}carbamate]	–	< 10	186	–
COc1cc2nccc(Oc3cc(C)c(NC(=O)OCCCc4ccccc4)cc3C)c2cc1OC [Example 377, 3-Phenylpropyl N-{4-[(6,7-dimethoxy-4-quinolyl)oxy]-2,5-dimethylphenyl}carbamate]	–	21	151	–
COc1cc(Oc2ccnc3cc(OC)c(OC)cc23)ccc1NC(=O)NCCN(C(C)C)C(C)C [Example 672, N-[2-(Diisopropylamino)ethyl]-N′-{4-[(6,7-dimethoxy-4-quinolyl)oxy]-2-methoxyphenyl}urea]	53	–	–	inhibition at 1 µM (c-kit; [1]): 9%
COc1cc2ncnc(Oc3ccc(NC(=O)NCCN4CCCC4)c([N+](=O)[O-])c3)c2cc1OC [Example 653, N-{4-[(6,7-Dimethoxy-4-quinazolinyl)oxy]-2-nitrophenyl}-N′-(2-tetrahydro-1H-1-pyrrolylethyl)urea]	23	–	–	IC50 (c-kit; 50 ng/ml h-SCF): 581 nM
COc1cc2nccc(Oc3ccc(NC(=O)NC4CCN(Cc5ccccc5)CC4)cc3C)c2cc1OC [Example 642, N-(1-Benzyl-4-piperidyl)-N′-{4-[(6,7-dimethoxy-4-quinolyl)oxy]-3-methylphenyl}urea]	> 100	–	–	inhibition at 0.1 µM (PDGF-Ra; figure within parentheses in >100( )): 20%; inhibition at 1 µM (c-kit; [1]): 8%
COc1cc(Oc2ccnc3cc(OC)c(OC)cc23)ccc1NC(=O)NC1CCN(Cc2ccccc2)CC1 [Example 607, N-{4-[(6,7-Dimethoxy-4-quinolyl)oxy]-2-methoxyphenyl}-N′-[4-(N-benzyl)piperidinyl]urea]	29	–	–	IC50 (c-kit; 50 ng/ml h-SCF): 554 nM
COc1ccccc1CC(=O)NC(=S)Nc1ccc(Oc2ccnc3cc(OC)c(OC)cc23)c(Cl)c1 [Example 734, N-{3-Chloro-4-[(6,7-dimethoxy-4-quinolyl)oxy]phenyl}-N′-[2-(2-methoxyphenyl)acetyl]thiourea]	29	–	–	IC50 (c-kit; 50 ng/ml h-SCF): 216 nM
CCCC(CCN1CCOCC1)OC(=O)Nc1ccc(Oc2ccnc3cc(OC)c(OC)cc23)c(C)c1C (centres unmarked) [Example 439, 1-(2-Morpholinoethyl)butyl N-{4-[(6,7-dimethoxy-4-quinolyl)oxy]-2,3-dimethylphenyl}carbamate]	52	–	–	IC50 (c-kit; 50 ng/ml h-SCF): 224 nM
COc1cc2nccc(Oc3cc(C)c(NC(=O)OC4CCc5ccccc5C4)cc3C)c2cc1OC (centres unmarked) [Example 292, 1,2,3,4-Tetrahydro-2-naphthalenyl N-{4-[(6,7-dimethoxy-4-quinolyl)oxy]-2,5-dimethylphenyl}carbamate]	–	14	262	–
COc1cc2nccc(Oc3ccc(NC(=O)OCc4ccc(C(C)(C)C)cc4)c(C)c3C)c2cc1OC [Example 58, 4-(Tert-butyl)benzyl N-{4-[(6,7-dimethoxy-4-quinolyl)oxy]-2,3-dimethylphenyl}carbamate]	–	12	499	–
COc1cc2nccc(Oc3ccc(NCCOc4c(C)cccc4C)c(C)c3C)c2cc1OC [Example 894, N-{4-[(6,7-Dimethoxy-4-quinolyl)oxy]-2,3-dimethylphenyl}-N-[2-(2,6-dimethylphenoxy)ethyl]amine]	> 100	–	–	inhibition at 0.1 µM (PDGF-Ra; [2]): 49%; inhibition at 1 µM (c-kit; figure in parentheses in −( )): 23%
COc1cc2nccc(Oc3ccc(NC(=S)NC(=O)c4ccccc4)c(Cl)c3)c2cc1OC [Example 1107, N-Benzoyl-N′-{2-chloro-4-[(6,7-dimethoxy-4-quinolyl)oxy]phenyl}thiourea]	> 100	–	–	inhibition at 0.1 µM (PDGF-Ra; [2]): 46%; inhibition at 1 µM (c-kit; figure in parentheses in −( )): 24%
